For 19 compounds, IC50 results are on record in ChEMBL document CHEMBL4266058, “2-Aminoadipic Acid-C(O)-Glutamate Based Prostate-Specific Membrane Antigen Ligands for Potential Use as Theranostics” (ACS Med Chem Lett, 2018).

The assay deals with Glutamate carboxypeptidase 2 (Homo sapiens, UniProt Q04609). Description: Inhibition of recombinant human PSMA using [3H]NAAG as substrate preincubated for 15 mins followed by substrate addition measured after 20 mins by liquid scintillation method.
Glutamate carboxypeptidase 2, sequence (Q04609 whole entry): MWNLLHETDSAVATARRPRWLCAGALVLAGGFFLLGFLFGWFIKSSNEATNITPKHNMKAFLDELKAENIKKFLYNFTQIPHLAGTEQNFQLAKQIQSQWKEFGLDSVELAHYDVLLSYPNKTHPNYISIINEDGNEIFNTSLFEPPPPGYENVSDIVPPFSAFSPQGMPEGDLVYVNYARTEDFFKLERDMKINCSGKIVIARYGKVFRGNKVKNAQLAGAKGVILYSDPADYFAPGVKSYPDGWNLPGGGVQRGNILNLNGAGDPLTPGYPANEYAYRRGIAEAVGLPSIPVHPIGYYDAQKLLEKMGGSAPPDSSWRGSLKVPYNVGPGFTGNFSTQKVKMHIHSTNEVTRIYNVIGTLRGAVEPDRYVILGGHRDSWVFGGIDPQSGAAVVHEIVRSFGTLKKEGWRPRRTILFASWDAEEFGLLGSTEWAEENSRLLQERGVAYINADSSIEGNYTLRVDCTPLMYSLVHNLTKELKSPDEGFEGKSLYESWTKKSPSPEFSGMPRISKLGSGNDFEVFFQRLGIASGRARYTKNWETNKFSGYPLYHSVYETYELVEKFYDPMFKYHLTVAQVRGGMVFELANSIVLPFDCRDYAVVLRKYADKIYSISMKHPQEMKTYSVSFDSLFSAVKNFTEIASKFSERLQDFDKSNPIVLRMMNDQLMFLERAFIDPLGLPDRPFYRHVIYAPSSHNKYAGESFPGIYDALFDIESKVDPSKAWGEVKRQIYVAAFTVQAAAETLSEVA
Turning to `O=C(O)CC[C@H](NC(=O)N[C@@H](CCCC(=O)Nc1cccc(F)c1)C(=O)O)C(=O)O`, the IC50 amounted to 0.28 nM.

In the case of `O=C(O)CC[C@H](NC(=O)N[C@@H](CCCC(=O)NCc1ccc(F)cc1)C(=O)O)C(=O)O`, the IC50 was 2.32 nM. On to `C[C@H](NC(=O)CCC[C@H](NC(=O)N[C@@H](CCC(=O)O)C(=O)O)C(=O)O)c1ccc(F)cc1`, for which the IC50 stood at 5.24 nM. For `O=C(O)CC[C@H](NC(=O)N[C@@H](CCCC(=O)N(CCNC(=O)c1ccc(F)nc1)c1ccccc1)C(=O)O)C(=O)O`, the IC50 was 0.13 nM. Under `C[C@H](NC(=O)CCC[C@H](NC(=O)N[C@@H](CCC(=O)O)C(=O)O)C(=O)O)c1ccc(F)nc1` stands 4.46 nM; under `O=C(O)CC[C@H](NC(=O)N[C@@H](CCCC(=O)NC(c1ccc(F)cc1)c1ccc(F)cc1)C(=O)O)C(=O)O`, 1.19 nM; under `CN(Cc1ccc(F)cc1)C(=O)CCC[C@H](NC(=O)N[C@@H](CCC(=O)O)C(=O)O)C(=O)O`, 0.64 nM.

On to `CN(C(=O)CCC[C@H](NC(=O)N[C@@H](CCC(=O)O)C(=O)O)C(=O)O)c1ccc(F)nc1`, for which the concentration for half-maximal inhibition (IC50) is 0.075 nM. In the case of `O=C(O)CC[C@H](NC(=O)N[C@@H](CCCC(=O)NCc1cccc(F)c1)C(=O)O)C(=O)O`, the IC50 was 2.91 nM. Under `O=C(O)CC[C@H](NC(=O)N[C@@H](CCCC(=O)N(CCNC(=O)c1ccc(F)cc1)c1ccccc1)C(=O)O)C(=O)O` stands 0.15 nM; under `C[C@@H](NC(=O)CCC[C@H](NC(=O)N[C@@H](CCC(=O)O)C(=O)O)C(=O)O)c1ccc(F)cc1`, 5.44 nM; under `CN(C(=O)CCC[C@H](NC(=O)N[C@@H](CCC(=O)O)C(=O)O)C(=O)O)c1ccc(F)cc1`, 0.2 nM. Under `O=C(O)CC[C@H](NC(=O)N[C@@H](CCCC(=O)N1CCN(c2ccc(F)cc2)CC1)C(=O)O)C(=O)O` stands 1.31 nM; under `CN(Cc1cccc(F)c1)C(=O)CCC[C@H](NC(=O)N[C@@H](CCC(=O)O)C(=O)O)C(=O)O`, 0.46 nM; under `O=C(O)CC[C@H](NC(=O)N[C@@H](CCCC(=O)NCCNC(=O)c1ccc(F)nc1)C(=O)O)C(=O)O`, 1.11 nM. In the case of `O=C(O)CC[C@H](NC(=O)N[C@@H](CCCC(=O)Nc1ccc(F)cc1)C(=O)O)C(=O)O`, the IC50 worked out at 0.35 nM. The figure for `O=C(O)CC[C@H](NC(=O)N[C@@H](CCCC(=O)Nc1ccc(F)nc1)C(=O)O)C(=O)O` is 0.99 nM; for `O=C(O)CC[C@H](NC(=O)N[C@@H](CCCC(=O)NCc1ccccc1F)C(=O)O)C(=O)O` it is 2.11 nM; for `O=C(O)CC[C@H](NC(=O)N[C@@H](CCCC(=O)NCCNC(=O)c1ccc(F)cc1)C(=O)O)C(=O)O` it is 0.94 nM.

As a reminder, the IC50 is the point on the concentration scale where inhibition reaches its midpoint.
